Patent publication US20220267374A1, “IMMUNITY INDUCER AND PHARMACEUTICAL COMPOSITION FOR PREVENTING OR TREATING AGING-RELATED DISEASES” (priority 2019, published 2022)
Ends that are not written are not given here.

What was measured:
GPNMB-positive cells = assay: Gpnmb-dependent luciferase activity in the aorta; type: in vivo, ApoE/Gpnmb-DTR mice; settings: HFD from 4 to 16 weeks of age, s.c. vaccination at 8 weeks of age; vs control vaccine; FIG. 2J
Description: Gpnmb-DTR mouse bred by feeding normal diet or HFD for 4 weeks, and Gpnmb-DTR mouse bred by feeding HFD for 4 weeks, and then injecting DT (50 μg/kg body weight) at 2-week intervals (12 weeks of age and 14 weeks of age) intraperitoneally twice while continuing to feed HFD (16 weeks of age) were subjected to in vivo luciferase imaging analysis using the IVIS imaging system (Perkin Elmer). Mice were shaved ventrally, anesthetized with isoflurane (Wako Pure Chemicals Industries), and injected intraperitoneally with luciferin (150 mg/kg body weight) according to the manufacturer's instructions (Vivo-Glo; Promega). Luciferase activity was monitored 5 minutes after luciferin administration. Signals were analyzed using Living Image software (Perkin Elmer) to quantify luciferase activity. […]
(§1) Detection of arteriosclerotic plaque and analysis of Gpnmb-dependent luciferase activity were performed using the same method as in “6.” and “2.” of Reference Example 1, except that ApoE/Gpnmb-DTR mice (16 weeks of age) bred while feeding HFD for 12 weeks from 4 to 16 weeks of age and administered with peptide vaccine 1 or a control vaccine by subcutaneous injection at a time point of 8 weeks of age were used (refer to FIG. 2J). The Oil Red O stained region was quantified by Image-J software (refer to FIG. 2K). […]

Open field test = type: in vivo, C57BL/6 mice; settings: normal diet, s.c. vaccination at 50 weeks of age; vs control vaccine; FIG. 2L
Description: C57BL/6 mice bred by feeding a normal diet and administered with peptide vaccine 1 or a control vaccine by subcutaneous injection at a time point of 50 weeks of age were used. Open field tests were performed before and after vaccination (50 and 70 weeks of age). The open field test is a test that measures voluntary activity in a novel environment. Each mouse was placed in an open field and tested for 6 minutes. The total action time (seconds) and average speed (cm/sec) of each mouse during the test were measured. The difference between the measurement results at 50 weeks of age and the measurement results at 70 weeks of age is shown in FIG. 2L. In FIG. 2L, “Cont vac” is a C57BL/6 mouse administered with the control vaccine, and “Gpnmb vac” is a C57BL/6 mouse administered with the peptide vaccine 1.

[1] = tested on: replicative aging adipose precursor cells derived from C57BL/6 mice; assay: ADCC (Antibody-Dependent-Cellular-Cytotoxicity) activity analysis; type: cell-based; settings: purified IgG from mice administered with the vaccine; NK effector cells/target cells 1/1; LDH release, 4 hours; FIG. 2E
Description: ADCC (Antibody-Dependent-Cellular-Cytotoxicity) was evaluated using a CytoTox 96 non-radioactive cytotoxicity assay kit (Promega). Specifically, natural killer (NK) cells were isolated from C57BL/6 mice as effector cells using Ficoll-Paque Plus (GE Healthcare) and EasySep mouse NK cell isolation kit (STEMCELL). Subsequently, as target cells, replicative aging adipose precursor cells derived from C57BL/6 mice were seeded on a 96-well plate so as to have 10^4 cells per well. Subsequently, purified IgG antibody obtained from C57BL/6 mice bred by feeding HFD from 4 weeks of age and administered with peptide vaccine 1 or a control vaccine by subcutaneous injection at a time point of 8 weeks of age was added to each well, and incubated at 37° C. for 30 minutes. After incubation, NK cells were seeded in each well so that a ratio of the cell number of effector cells to the target cells (effector cells/target cells) was 1/1. Subsequently, the plates were incubated at 37° C. for an additional 4 hours. Subsequently, lactate dehydrogenase released in a supernatant was detected using a microtiter plate reader (iMark microplate reader, Bio-Rad). To evaluate cell death, a ratio of lysed cells to the total number of cultured cells was calculated. In FIG. 2E, “Cont vac” is a C57BL/6 mouse administered with the control vaccine, and “Gpnmb vac” is a C57BL/6 mouse administered with peptide vaccine 1.

arteriosclerotic plaque = assay: Detection of arteriosclerotic plaque (Oil Red O staining); type: in vivo, ApoE/Gpnmb-DTR mice; settings: HFD from 4 to 16 weeks of age, s.c. vaccination at 8 weeks of age; vs control vaccine; FIGS. 2J, 2K
Description: Arteriosclerotic plaques were detected by Oil Red O staining. Briefly, autopsy removed adventitial fat to open the entire aorta and fixed the aorta flat in 4 v/v % paraformaldehyde at room temperature for 12 hours. Subsequently, the fixed aorta was washed by immersing in 60 v/v % isopropyl alcohol for 1 minute. Subsequently, the aorta was incubated at 37° C. for 15 minutes in 0.5% of Oil Red O (Sigma-Aldrich) solution (diluted with 60 v/v % isopropyl alcohol). After staining, the sample was briefly immersed in a 60 v/v % isopropyl alcohol solution and then washed with double distilled water. Atherosclerotic lesions were stained red with Oil Red O (refer to FIG. 1G). For the Oil Red O stained region, the plaque region was quantified by Image-J software (refer to FIG. 1H). […]
as §1

RRGDGRWKD (also: KLH conjugate; listed as Mus musculus) [peptide vaccine 1, peptide of positions 63 to 71 of mouse GPNMB protein]
Gpnmb-dependent luciferase activity in the aorta (GPNMB-positive cells): decreased | results in the open field test (total action time, average speed; difference 50 vs 70 weeks of age) (Open field test): significantly improved | antibody-dependent cellular cytotoxicity (ADCC activity) [1]: exhibits antibody-dependent cellular cytotoxicity (ADCC activity) | development of atheroma (arteriosclerotic plaque, Oil Red O stained region) (arteriosclerotic plaque): significantly decreased
